# Reference: patent US10766912B2 (priority 2017, dated 2020)
# Tested on: HCV GT1a wild-type replicon
# Assay: Assay Example 6: drug resistance, activity against HCV GT1a wild-type replicon
# Assay type: cell-based
# Conditions: Hepatitis C virus, 72 h, Huh-7 cells, transient transfection, 3 days, read-out: GT1a-wt EC50 value
# Experimental: Cells: Huh-7 cells are liver cancer cell strains (from AppTec, USA), HCVGT1a wild-type replicon and GT1a-NS5A-Y93H and GT1a-NS5A-L31V mutant replicons
# Treatment of Compound: According to the assay final concentrations of the compounds in Table 11, DMSO stock solutions of the compounds were diluted and then added to a 96-well assay plate. The final concentration of DMSO was 0.5%.
# The preparation of cells: After replicon plasmid DNA was linearized with a corresponding restriction enzyme, the DNA was transcribed into RNA by using T7 RNA polymerase. Replicon RNA prepared by transcription in vitro was transfected into Huh-7 cells by electroporation. Transfected cells were seeded at a density of 10,000 cells per well into the 96-well assay plate containing the diluted compounds, and then placed in a 37° C. incubator with 5% CO2 and cultured for 3 days.
# Compound activity assay: Luminescence signal value (RLU) was detected with Envision within 5 minutes by using the luciferase assay reagent Britelite plus, and the original data (RLU) was used for the calculation of the activity of the compounds.
# The activity of the compounds was calculated by using the equation below: Inhibition %=(CPD−ZPE)/(HPE−ZPE)×100%*
# The compound activity percentages (Inhibition %) were imported into GraphPad Prism software, and curves were fitted by using nonlinear regression method to obtain the corresponding curves of the compounds and the inhibitory activity (EC50) values against the HCV replicon thereof.
smiles,measurement,value
COC(=O)N[C@H](C(=O)N1CCC[C@H]1C(=O)Nc1ccc([C@H]2CC[C@H](c3ccc4nc([C@@H]5CCCN5C(=O)[C@@H](NC(=O)OC)[C@@H](C)OC)[nH]c4c3)N2c2cc(F)c(N3CC[Si](C)(C)CC3)c(F)c2)cc1)[C@@H](C)OC [Compound 6b],EC50,2.2 pM
